Our source for the pest or weed control and melting point values is patent US9000002B2, “N1-substituted-5-fluoro-2-oxopyrimidinone-1(2H)-carboxamide derivatives” (Dow Agrosciences LLC, priority 2009, dated 2015).

Data set [1] has as its system Mycosphaerella graminicola; Anamorph: Septoria tritici; Bayer Code SEPTTR. In words: Evaluation of fungicidal activity: leaf blotch of wheat (SEPTTR), wheat plants variety Yuma. It is filed as in vivo. To be noted: Zymoseptoria tritici. As to the method: Evaluation of Fungicidal Activity: Leaf Blotch of Wheat (Mycosphaerella graminicola; Anamorph: Septoria tritici; Bayer Code […]) Wheat plants (variety Yuma) were grown from seed in a greenhouse in 50% mineral soil/50% soil-less Metro mix until the first leaf was fully emerged, with 7-10 seedlings per pot. These plants were inoculated with an aqueous spore suspension of Septoria tritici either prior to or after fungicide treatments. After inoculation the plants were kept in 100% relative humidity (one day in a dark dew chamber followed by two to three days in a lighted dew chamber) to permit spores to germinate and infect the leaf. The plants were then transferred to a greenhouse for disease to develop. The following table presents the activity of typical compounds of the present disclosure when evaluated in these experiments. The effectiveness of the test compounds in controlling disease was determined by assessing the severity of disease on treated plants, then converting the severity to percent control based on the level of disease on untreated, inoculated plants. • In each case of Table II the rating scale is as follows: […]

[2] abbreviates: 24 h, One-Day Protectant (1DP), 100 ppm, wheat plants, percent control vs untreated inoculated plants, read-out: SEPTTR 100 PPM 1DP (% Disease Control rating).
The mark [3] stands for this setting: 72 h, Three-Day Curative (3DC), 100 ppm, wheat plants, percent control vs untreated inoculated plants, read-out: SEPTTR 100 PPM 3DC (% Disease Control rating).

Read-outs that look alike come from different tables or passages of the source.

In the case of `CC(=O)Nc1nc(=O)n(C(=O)NCc2ccc(Cl)cc2)cc1F` [Compound 47], the melting point – broadly, the temperature, or range, at which the solid turns liquid – lay in the range of 170 to 172 °C. Besides, in data set [1] (setting [2]), the pest or weed control at 100 ppm fell in the range of 76 to 100%. For the same molecule, the pest or weed control at 100 ppm in data set [1] (setting [3]) was in the range of 76 to 100%.
Consider `Nc1nc(=O)n(C(=O)Nc2ccc(F)c(Cl)c2)cc1F` [Compound 11], for which the melting point fell in the range of 251 to 254 °C. Further, the pest or weed control at 100 ppm in data set [1] (setting [2]) is 76 to 100%. Moreover, in data set [1] (setting [3]), the pest or weed control at 100 ppm lay in the range of 26 to 50%.
As for `Cc1ccc(NC(=O)n2cc(F)c(N)nc2=O)cc1` [Compound 15], the melting point lay within 257 to 260 °C. The pest or weed control at 100 ppm in data set [1] (setting [2]) fell in the range of 76 to 100%. In addition, the pest or weed control at 100 ppm in data set [1] (setting [3]) lay within 76 to 100%.
In turn, `CSCCNC(=O)n1cc(F)c(N)nc1=O` [Compound 26] returned a melting point of 237 to 239 °C. Further, the pest or weed control at 100 ppm in data set [1] (setting [2]) lay in the range of 76 to 100%. The pest or weed control at 100 ppm in data set [1] (setting [3]) lay in the range of 76 to 100%.
Consider `Nc1nc(=O)n(C(=O)Nc2ccc(F)cc2)cc1F` [Compound 21], for which the melting point lay in the range of 257 to 259 °C. For the same molecule, the pest or weed control at 100 ppm in data set [1] (setting [2]) fell in the range of 76 to 100%. In addition, in data set [1] (setting [3]), the pest or weed control at 100 ppm is 76 to 100%.
The molecule `CCCCCNC(=O)n1cc(F)c(NC(=O)NCc2ccccc2OC)nc1=O` [Compound 52] had a melting point of 248 to 250 °C. Also, in data set [1] (setting [2]), the pest or weed control at 100 ppm was 0 to 25%. Moreover, the pest or weed control at 100 ppm in data set [1] (setting [3]) lay in the range of 0 to 25%.
`CCN(CC)C(=S)n1cc(F)c(/N=C/N(C)C)nc1=O` [Compound 33, (E)-4-((dimethylamino)methyleneamino)-N,N-diethyl-5-fluoro-2-oxopyrimidine-1(2H)-carbothioamide] displayed a melting point of 118 to 123 °C. In data set [1] (setting [2]), the pest or weed control at 100 ppm was 0 to 25%. Further, the pest or weed control at 100 ppm in data set [1] (setting [3]) was 26 to 50%.
Taken in the same sequence, the figures for `CC(C)NC(=O)n1cc(F)c(N)nc1=O` [Compound 24] were 291 to 294 °C, 76 to 100% and 76 to 100%.
In the same order, the values of `Cn1ccc2cc(NC(=O)n3cc(F)c(N)nc3=O)ccc21` [Compound 18] are 268 to 270 °C, 76 to 100% and 76 to 100%.
In the same order, the values of `CCCNC(=O)n1cc(F)c(/N=C/N(C)C)nc1=O` [Compound 1, 4-(dimethylamino-methyleneamino)-5-fluoro-2-oxo-2H-pyrimidine-1-carboxylic acid propylamide] are 266 to 268 °C, 76 to 100% and 76 to 100%.
In turn, `CN(C(=S)n1cc(F)c(N)nc1=O)c1cccc(C(F)(F)F)c1` [Compound 35] gave a melting point of 126 to 131 °C. In addition, the pest or weed control at 100 ppm in data set [1] (setting [2]) was in the range of 76 to 100%. The pest or weed control at 100 ppm in data set [1] (setting [3]) fell in the range of 76 to 100%.
Take `COc1ccccc1CNC(=O)Nc1nc(=O)n(C(=O)NCc2ccccc2F)cc1F` [Compound 53]: the melting point lay within 229 to 231 °C. Besides, the pest or weed control at 100 ppm in data set [1] (setting [2]) lay in the range of 0 to 25%. Moreover, the pest or weed control at 100 ppm in data set [1] (setting [3]) fell in the range of 0 to 25%.
Regarding `CCNC(=O)n1cc(F)c(NC(C)=O)nc1=O` [Compound 38, 4-acetamido-N-ethyl-5-fluoro-2-oxopyrimidine-1(2H)-carboxamide], the melting point lay within 233 to 235 °C. Moreover, the pest or weed control at 100 ppm in data set [1] (setting [2]) was 76 to 100%. Also, the pest or weed control at 100 ppm in data set [1] (setting [3]) fell in the range of 76 to 100%.
Molecule `CCCNC(=O)n1cc(F)c(NC(=O)c2ccccc2Cl)nc1=O` [Compound 42] had a melting point of 239 to 241 °C. Besides, the pest or weed control at 100 ppm in data set [1] (setting [2]) was in the range of 26 to 50%. Further, in data set [1] (setting [3]), the pest or weed control at 100 ppm was in the range of 76 to 100%.
For `COc1ccccc1NC(=O)n1cc(F)c(N)nc1=O` [Compound 7], the melting point was 277 to 280 °C (dec.). Also, the pest or weed control at 100 ppm in data set [1] (setting [2]) was in the range of 76 to 100%. Further, the pest or weed control at 100 ppm in data set [1] (setting [3]) was 76 to 100%.
For `CCCNC(=O)n1cc(F)c(NC(=O)NCc2ccccc2OC)nc1=O` [Compound 51], the melting point was 248 to 250 °C. In data set [1] (setting [2]), the pest or weed control at 100 ppm was in the range of 0 to 25%. Further, the pest or weed control at 100 ppm in data set [1] (setting [3]) was in the range of 0 to 25%.
`COc1ccc(NC(=O)n2cc(F)c(N)nc2=O)cc1` [Compound 10] gave a melting point of 252 to 255 °C. Also, in data set [1] (setting [2]), the pest or weed control at 100 ppm is 76 to 100%. For the same molecule, the pest or weed control at 100 ppm in data set [1] (setting [3]) lay within 76 to 100%.
Molecule `Nc1nc(=O)n(C(=O)Nc2cccc(Cl)c2)cc1F` [Compound 14, 4-amino-N-(3-chlorophenyl)-5-fluoro-2-oxopyrimidine-1(2H)-carboxamide] gave a melting point of 250 to 252 °C. Further, the pest or weed control at 100 ppm in data set [1] (setting [2]) lay within 76 to 100%. For the same molecule, the pest or weed control at 100 ppm in data set [1] (setting [3]) fell in the range of 76 to 100%.
Consider `CCNC(=O)n1cc(F)c(NC(=O)c2ccccc2Cl)nc1=O` [Compound 46], for which the melting point lay in the range of 239 to 241 °C. Further, the pest or weed control at 100 ppm in data set [1] (setting [2]) was 76 to 100%. Besides, the pest or weed control at 100 ppm in data set [1] (setting [3]) was 51 to 75%.
In the same order, the values of `CCCNC(=O)n1cc(F)c(NCc2ccccc2F)nc1=O` [Compound 32] are 113 to 116 °C, 26 to 50% and 51 to 75%.
For the molecule `Nc1nc(=O)n(C(=O)NC2CCCC2)cc1F` [Compound 5, 4-amino-N-cyclopentyl-5-fluoro-2-oxopyrimidine-1(2H)-carboxamide], the melting point fell in the range of 294 to 297 °C. The pest or weed control at 100 ppm in data set [1] (setting [2]) lay within 76 to 100%. For the same molecule, the pest or weed control at 100 ppm in data set [1] (setting [3]) fell in the range of 76 to 100%.
Take `CCNC(=O)n1cc(F)c(NC(=O)C(C)C)nc1=O` [Compound 45]: the melting point lay in the range of 226 to 228 °C. In data set [1] (setting [2]), the pest or weed control at 100 ppm was in the range of 76 to 100%. The pest or weed control at 100 ppm in data set [1] (setting [3]) lay in the range of 76 to 100%.
`Nc1nc(=O)n(C(=O)Nc2ccccc2Cl)cc1F` [Compound 8] returned a melting point of 258 to 261 °C. Besides, the pest or weed control at 100 ppm in data set [1] (setting [2]) was in the range of 76 to 100%. The pest or weed control at 100 ppm in data set [1] (setting [3]) lay within 76 to 100%.
With `Nc1nc(=O)n(C(=O)Nc2ccccc2)cc1F` [Compound 6, 4-amino-5-fluoro-2-oxo-N-phenylpyrimidine-1(2H)-carboxamide], the melting point was 275 to 277 °C (dec.). Besides, in data set [1] (24 h, read-out: SEPTTR 100 PPM 1DP (% Disease Control rating)), the pest or weed control at 100 ppm lay in the range of 76 to 100%. Besides, the pest or weed control at 100 ppm in data set [1] (72 h, read-out: SEPTTR 100 PPM 3DC (% Disease Control rating)) lay within 76 to 100%.
Turning to `COCCCNC(=O)n1cc(F)c(N)nc1=O` [Compound 27], the melting point was 295 to 298 °C. Further, the pest or weed control at 100 ppm in data set [1] (setting [2]) fell in the range of 76 to 100%. In addition, in data set [1] (setting [3]), the pest or weed control at 100 ppm fell in the range of 76 to 100%.
For `Nc1nc(=O)n(C(=O)Nc2ccsc2)cc1F` [Compound 20], the melting point is 263 to 265 °C. Besides, in data set [1] (setting [2]), the pest or weed control at 100 ppm lay within 76 to 100%. Moreover, the pest or weed control at 100 ppm in data set [1] (setting [3]) was in the range of 76 to 100%.
Take `Nc1nc(=O)n(C(=O)Nc2ccc3ccccc3c2)cc1F` [Compound 17]: the melting point was in the range of 273 to 275 °C. Also, in data set [1] (setting [2]), the pest or weed control at 100 ppm was in the range of 76 to 100%. In data set [1] (setting [3]), the pest or weed control at 100 ppm was in the range of 76 to 100%.
Take `CCOC(=O)CNC(=O)n1cc(F)c(N)nc1=O` [Compound 25]: the melting point fell in the range of 220 to 224 °C. Further, the pest or weed control at 100 ppm in data set [1] (setting [2]) was in the range of 76 to 100%. In data set [1] (setting [3]), the pest or weed control at 100 ppm was 76 to 100%.
In the case of `Cc1ccc(NC(=O)n2cc(F)c(NCc3ccccc3F)nc2=O)cc1` [Compound 30], the melting point was in the range of 158 to 162 °C. Moreover, the pest or weed control at 100 ppm in data set [1] (setting [2]) is 0 to 25%. The pest or weed control at 100 ppm in data set [1] (setting [3]) was in the range of 26 to 50%.
